Molecular target: T1, human OX2 receptor (Homo sapiens, UniProt O43614)
T1 construct: expressed in transfected cells
T1 sequence (O43614 1-444): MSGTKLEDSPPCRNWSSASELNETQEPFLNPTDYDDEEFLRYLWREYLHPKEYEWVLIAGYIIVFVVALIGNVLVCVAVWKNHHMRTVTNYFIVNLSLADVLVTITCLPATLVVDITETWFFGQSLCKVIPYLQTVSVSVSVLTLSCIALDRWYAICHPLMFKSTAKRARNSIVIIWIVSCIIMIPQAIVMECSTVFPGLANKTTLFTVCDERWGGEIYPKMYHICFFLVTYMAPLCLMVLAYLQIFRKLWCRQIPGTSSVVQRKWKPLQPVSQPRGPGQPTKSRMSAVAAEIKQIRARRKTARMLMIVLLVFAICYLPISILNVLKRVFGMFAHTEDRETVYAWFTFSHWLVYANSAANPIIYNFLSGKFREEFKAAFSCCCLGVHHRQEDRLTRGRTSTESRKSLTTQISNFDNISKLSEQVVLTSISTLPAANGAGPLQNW
Experiment: Measurement of orexin type 2 receptor agonist activity (calcium fluorescence, Fluo-4 AM, FDSS)
Assay type: cell-based
Details: compound at 3 μM; CHO cells forcibly expressing human OX2 receptor; DMSO = 0%, 10 nM orexin A (human) = 100%
Method: In order to obtain cell clones that stably express human orexin type 2 receptor, human orexin type 2 (residues 1-444, NCBI Reference Sequence: AK314279) was constructed in a pcDNA3.1 (+) vector (Invitrogen) to express in mammalian cells. This plasmid DNA was transfected into CHO-K1 cells by electroporation, and stable clones were obtained by limiting dilution using resistance to G418 as a selection marker.
CHO cells in which human OX2 receptor was forcibly expressed were seeded at 10,000 cells/well into a 384-well black transparent bottom plate (BD falcon), and were incubated at 37° C., 5% CO2 for 1 day after incubation at room temperature for 30 minutes. After removing the cell plate medium, assay buffer containing calcium indicator A (HBSS (Thermo Fisher Scientific), 20 mM HEPES (Thermo Fisher Scientific), 0.1% BSA (Sigma-Aldrich), 2.5 μg/mL Fluo-4 AM (Dojin Kagaku), 0.08% Pluronic F127 (Dojin Kagaku), 1.25 mM probenecid (Dojin Kagaku)) was added at 30 μL/well. After incubation in a 5% CO2 incubator at 37° C. for 30 minutes, it was incubated at room temperature for another 30 minutes. Add 10 μL/well of the test compound diluted with assay buffer B (HBSS, 20 mM HEPES, 0.1% BSA), and use FDSS uCELL (Hamamatsu Photonics) to measure the fluorescence value every 1 second for 1 minute, and then every 2 seconds for […]. It was measured for 1 minute and 40 seconds. The amount of fluorescence value when DMSO is added instead of the test compound is defined as 0%, and the amount of fluorescence value when orexin A (human) (Peptide Institute) with a final concentration of 10 nM is added is defined as 100%. The activity (%) of the test compound was calculated.

Cc1cnc([C@@H]2CC(N3C[C@H](F)[C@H](NS(C)(=O)=O)C3)=NO2)c(-c2c(F)cccc2F)c1 [Example 32, N-[(3R,4S)-1-{(5S)-5-[3-(2,6-difluorophenyl)-5-methylpyridin-2-yl]-4,5-dihydro-1,2-oxazol-3-yl}-4-fluoropyrrolidin-3-yl]methanesulfonamide]
OX2R agonist activity (3 μM, %): 98%

Cc1cnc([C@@H]2CC(N3C[C@@H](NS(=O)(=O)C4CC4)C(F)(F)C3)=NO2)c(-c2c(F)cccc2F)c1 [Example 33, N-[(3R)-1-{(5S)-5-[3-(2,6-difluorophenyl)-5-methylpyridin-2-yl]-4,5-dihydro-1,2-oxazol-3-yl}-4,4-difluoropyrrolidin-3-yl]cyclopropanesulfonamide]
OX2R agonist activity (3 μM, %): 102%

CCS(=O)(=O)N[C@@H]1CN(C2=NOC(c3ncc(F)cc3-c3c(F)cc(F)cc3F)C2)CC1(F)F (stereo partly drawn) [Example 34, N-[(3R)-4,4-difluoro-1-{5-[5-fluoro-3-(2,4,6-trifluorophenyl)pyridin-2-yl]-4,5-dihydro-1,2-oxazol-3-yl}pyrrolidin-3-yl]ethanesulfonamide]
OX2R agonist activity (3 μM, %): 105%

CN(C)S(=O)(=O)N[C@H]1CCN(C2=NOC(c3ncccc3-c3c(F)cc(F)cc3F)C2)C1 (stereo partly drawn) [Example 35, N,N-dimethyl-N′-[(3S)-1-{5-[3-(2,4,6-trifluorophenyl)pyridin-2-yl]-4,5-dihydro-1,2-oxazol-3-yl}pyrrolidin-3-yl]sulfuric diamide]
OX2R agonist activity (3 μM, %): 92%

O=S(=O)(CF)N[C@H]1CCN(C2=NOC(c3ncc(F)cc3-c3c(F)cc(F)cc3F)C2)C1 (stereo partly drawn) [Example 36, 1-fluoro-N-[(3S)-1-{5-[5-fluoro-3-(2,4,6-trifluorophenyl)pyridin-2-yl]-4,5-dihydro-1,2-oxazol-3-yl}pyrrolidin-3-yl]methanesulfonamide]
OX2R agonist activity (3 μM, %): 103%

Cc1cnc([C@@H]2CC(N3CC[C@H](NS(=O)(=O)C(F)F)C3)=NO2)c(-c2c(F)cccc2F)c1 [Example 37, N-[(3S)-1-{(5S)-5-[3-(2,6-difluorophenyl)-5-methylpyridin-2-yl]-4,5-dihydro-1,2-oxazol-3-yl}pyrrolidin-3-yl]-1,1-difluoromethanesulfonamide]
OX2R agonist activity (3 μM, %): 103%

Cc1cnc([C@@H]2CC(N3CC[C@H](NS(=O)(=O)CF)C3)=NO2)c(-c2c(F)cccc2F)c1 [Example 38, N-[(3S)-1-{(5S)-5-[3-(2,6-difluorophenyl)-5-methylpyridin-2-yl]-4,5-dihydro-1,2-oxazol-3-yl}pyrrolidin-3-yl]-1-fluoromethanesulfonamide]
OX2R agonist activity (3 μM, %): 104%

CS(=O)(=O)N[C@@H]1CN(C2=NOC(c3ncc(Cl)cc3-c3c(F)cc(F)cc3F)C2)CC1(F)F (stereo partly drawn) [Example 39, N-[(3R)-1-{5-[5-chloro-3-(2,4,6-trifluorophenyl)pyridin-2-yl]-4,5-dihydro-1,2-oxazol-3-yl}-4,4-difluoropyrrolidin-3-yl]methanesulfonamide]
OX2R agonist activity (3 μM, %): 97%

CS(=O)(=O)N[C@@H]1CN(C2=NOC(c3ncc(Br)cc3-c3c(F)cc(F)cc3F)C2)CC1(F)F (stereo partly drawn) [Example 40, N-[(3R)-1-{5-[5-bromo-3-(2,4,6-trifluorophenyl)pyridin-2-yl]-4,5-dihydro-1,2-oxazol-3-yl}-4,4-difluoropyrrolidin-3-yl]methanesulfonamide]
OX2R agonist activity (3 μM, %): 103%

CS(=O)(=O)N[C@@H]1CN(C2=NOC(c3ncc(C(F)F)cc3-c3c(F)cc(F)cc3F)C2)CC1(F)F (stereo partly drawn) [Example 41, N-[(3R)-1-{5-[5-(difluoromethyl)-3-(2,4,6-trifluorophenyl)pyridin-2-yl]-4,5-dihydro-1,2-oxazol-3-yl}-4,4-difluoropyrrolidin-3-yl]methanesulfonamide]
OX2R agonist activity (3 μM, %): 107%

CCS(=O)(=O)N[C@@H]1CN(C2=NOC(c3ncc(Cl)cc3-c3c(F)cc(F)cc3F)C2)CC1(F)F (stereo partly drawn) [Example 42, N-[(3R)-1-{5-[5-chloro-3-(2,4,6-trifluorophenyl)pyridin-2-yl]-4,5-dihydro-1,2-oxazol-3-yl}-4,4-difluoropyrrolidin-3-yl]ethanesulfonamide]
OX2R agonist activity (3 μM, %): 100%

CCS(=O)(=O)N[C@@H]1CN(C2=NO[C@H](c3ncc(Br)cc3-c3c(F)cc(F)cc3F)C2)CC1(F)F [Example 43, N-[(3R)-1-{5-[5-bromo-3-(2,4,6-trifluorophenyl)pyridin-2-yl]-4,5-dihydro-1,2-oxazol-3-yl}-4,4-difluoropyrrolidin-3-yl]ethanesulfonamide]
OX2R agonist activity (3 μM, %): 103%

Cc1cnc([C@@H]2CC(N3C[C@@H](F)[C@H](NS(C)(=O)=O)C3)=NO2)c(-c2c(F)cccc2F)c1 [Example 44, N-[(3R,4R)-1-{(5S)-5-[3-(2,6-difluorophenyl)-5-methylpyridin-2-yl]-4,5-dihydro-1,2-oxazol-3-yl}-4-fluoropyrrolidin-3-yl]methanesulfonamide]
OX2R agonist activity (3 μM, %): 95%

Cc1cnc([C@@H]2CC(N3CC[C@H](NS(C)(=O)=O)C3)=NO2)c(-c2c(F)cc(F)cc2F)c1 [Example 45, N-[(3S)-1-{(5S)-5-[5-methyl-3-(2,4,6-trifluorophenyl)pyridin-2-yl]-4,5-dihydro-1,2-oxazol-3-yl}pyrrolidin-3-yl]methanesulfonamide]
OX2R agonist activity (3 μM, %): 101%

Cc1cnc([C@@H]2CC(N3CC[C@H](NS(=O)(=O)C4(F)CC4)C3)=NO2)c(-c2c(F)cc(F)cc2F)c1 [Example 46, 1-fluoro-N-[(3S)-1-{(5S)-5-[5-methyl-3-(2,4,6-trifluorophenyl)pyridin-2-yl]-4,5-dihydro-1,2-oxazol-3-yl}pyrrolidin-3-yl]cyclopropane-1-sulfonamide]
OX2R agonist activity (3 μM, %): 99%

CCS(=O)(=O)N[C@@H]1CN(C2=NO[C@H](c3ncc(C)cc3-c3c(F)cc(F)cc3F)C2)CC1(F)F [Example 47, N-[(3R)-4,4-difluoro-1-{(5S)-5-[5-methyl-3-(2,4,6-trifluorophenyl)pyridin-2-yl]-4,5-dihydro-1,2-oxazol-3-yl}pyrrolidin-3-yl]ethanesulfonamide]
OX2R agonist activity (3 μM, %): 93%

Cc1cnc([C@@H]2CC(N3C[C@@H](F)[C@H](NS(C)(=O)=O)C3)=NO2)c(-c2c(F)cc(F)cc2F)c1 [Example 48, N-[(3R,4R)-4-fluoro-1-{(5S)-5-[5-methyl-3-(2,4,6-trifluorophenyl)pyridin-2-yl]-4,5-dihydro-1,2-oxazol-3-yl}pyrrolidin-3-yl]methanesulfonamide]
OX2R agonist activity (3 μM, %): 94%

CS(=O)(=O)N[C@@H]1CN(C2=NOC(c3ncc(Cl)cc3-c3c(F)cccc3F)C2)CC1(F)F (stereo partly drawn) [Example 49, N-[(3R)-1-{5-[5-chloro-3-(2,6-difluorophenyl)pyridin-2-yl]-4,5-dihydro-1,2-oxazol-3-yl}-4,4-difluoropyrrolidin-3-yl]methanesulfonamide]
OX2R agonist activity (3 μM, %): 95%

Cc1ccc([C@@H]2CC(N3CC[C@H](NS(C)(=O)=O)C3)=NO2)c(-c2ncc(F)cc2F)c1 [Example 50, N-[(3S)-1-{5-[2-(3,5-difluoropyridin-2-yl)-4-methylphenyl]-4,5-dihydro-1,2-oxazol-3-yl}pyrrolidin-3-yl]methanesulfonamide]
OX2R agonist activity (3 μM, %): 99%

CS(=O)(=O)N[C@@H]1CN(C2=NOC(c3ncc(Br)cc3-c3c(F)cccc3F)C2)CC1(F)F (stereo partly drawn) [Example 52, N-[(3R)-1-{5-[5-bromo-3-(2,6-difluorophenyl)pyridin-2-yl]-4,5-dihydro-1,2-oxazol-3-yl}-4,4-difluoropyrrolidin-3-yl]methanesulfonamide]
OX2R agonist activity (3 μM, %): 93%

Cc1cnc([C@@H]2CC(N3C[C@@H](NS(C)(=O)=O)C(F)(F)C3)=NO2)c(-c2c(F)cc(Cl)cc2F)c1 [Example 53, N-[(3R)-1-{5-[3-(4-chloro-2,6-difluorophenyl)-5-methylpyridin-2-yl]-4,5-dihydro-1,2-oxazol-3-yl}-4,4-difluoropyrrolidin-3-yl]methanesulfonamide]
OX2R agonist activity (3 μM, %): 98%

Reference: patent US20240217957A1, “HETEROCYCLIC COMPOUND AND USE THEREOF” (TAKEDA PHARMACEUTICAL COMPANY LIMITED, priority 2022, published 2024)
